The results in this text go back to PMC12192727, “Strategies to Develop Na,K-ATPase-α4 Inhibitors as Male Contraceptives” (International Journal of Molecular Sciences, 2025).

Where two headings read alike, the source gives them in different places.

One data set is described as follows: Caco-2 cell permeability. The data set is classed as in vitro ADME, human. To be noted: human; for Papp A→B / recovery: Caco-2, Caco-2 cells; for Papp A→B: read-out: Papp (A-B); for Papp B→A / efflux ratio: Caco-2 cells; for efflux ratio: Papp(B-A)/Papp(A-B). The method, then:
The in vitro permeability and potential to be transported by P-gp (P-glycoprotein) were determined in a Caco-2 or MDCK cell line. Values are reported for a mass recovery > 60%. The efflux ratio was determined as follows: P^app(B-A)/Papp(A-B). The experimental details are reported in the Supporting Information (Tables S2–S5).
The recovery can be determined using the following equation:
Recovery%=(VA×[drug]acceptor+VD×[drug]donor)/(VD×[drug]initial, donor)
Where VA is the volume (in mL) in the acceptor well (0.235 mL for Ap→Bl flux, and 0.075 mL for
Bl→Ap), VD is the volume (in mL) in the donor well (0.075 mL for Ap→Bl flux, and 0.235 mL for
The leakage of Lucifer Yellow, in unit of percentage (%), can be calculated using the following
%LY leakage = 100×[LY]acceptor×0.3/([LY]donor×0.1+[LY]acceptor×0.3)
LY leakage of <1% is acceptable to indicate the well-qualified MDCK/ Caco-2 monolayer.
Table S5 . The Assessment of Caco-2 Cell Monolayer Integrity
The apparent permeability coefficient (Papp), Efflux ratio (ER), recovery percentage, and LY leakage percentage can be
calculated for Caco-2 Cell drug transport assays using the above equations. […]
(In general: Caco-2 cells form a polarised layer with tight junctions and transporters.)

A short description of a further data set: MDCK cell permeability. To be noted: dog, MDCK; for Papp A→B / recovery: MDCK cells; for Papp A→B: BSA 0% for controls, 0.5% for 13.
A further data set relates to mouse sperm. Briefly: Mouse sperm total motility in vitro (CASA). To be noted: for Emax: Mus musculus, Sperm, 1 h, nanomolar range concentration, read-out: Maximal Motility Inhibition (%); for Emax / Shape of inhibitory dose response on sperm motility: mouse sperm total motility. The data set is classed as cell-based. Here is the method:
To characterize the SAR of these compounds, we first evaluated their effects on total sperm motility in vitro. Sperm isolated from the cauda epididymis of mice were incubated with the test compounds in modified Whitten’s medium under non-capacitating conditions. Motility was assessed using a computer-assisted sperm analysis (CASA) system.
All experimental protocols involving animals used in this work were approved by the University of Kansas Medical Center Institutional Animal Care and Use Committee (ACUP number: 22-09-26, 10/2022). C57BL/6 mice were purchased from Harlan (Indianapolis, IN, USA). Spermatozoa were isolated from the cauda of adult mouse epididymis in Whitten’s medium, containing 100 mM NaCl, 4.7 mM KCl, 1.2 mM KH2PO4, 1.2 mM MgSO4, 5.5 mM glucose, 0.8 mM pyruvic acid, 4.8 mM lactic acid, and 40 mM Hepes, as previously described.
Spermatozoa (1 × 10^6 cells) were incubated at 37 °C in 100 μL of Whitten’s medium, with the addition of 1.7 mM CaCl2 and in the absence and presence of different amounts of the tested compounds for 60 min. Then, cells were labeled with the fluorescent nucleic acid stain SYTO 21, which allows for the tracking of the movement of the cell head. After 1 min of incubation with the dye, 5.5 μL aliquots from each sample were taken and placed into a glass cell chamber (Leja Products B.V., Nieuw-Vennep, The Netherlands). Sperm were maintained at 37 °C on a heated platform and viewed with an Olympus BX51 microscope (Olympus, Center Valley, PA, USA) through a 20× phase objective. Images of the moving sperm were captured using a CCD camera. Samples were analyzed by CASA using the Minitube SpermVision Digital Semen Evaluation system (version 3.5; Penetrating Innovations, Verona, WI, USA). An average of 200 cells/field were captured, at a rate of 30 frames per field, and a total of 10 fields in each sample were analyzed. Total sperm motility was obtained from sperm maintained in a non-capacitating medium, while for assessing the hyperactive pattern of motility, typical of sperm capacitation, cells were incubated in Whitten’s medium with the addition of 1.7 mM CaCl2, 25 mM sodium bicarbonate, and 0.5% bovine serum albumin.
Figure 2 Effect of simplified steroidal analogs on mouse sperm total motility. Sperm was isolated from the cauda epididymis and treated in the absence and presence of the indicated concentrations of each compound. After one hour of incubation, sperm motility was determined by CASA. Values are expressed as the mean ± SEM of three determinations.
Figure 4 Effect of non-steroidal small compounds on mouse sperm total motility. Sperm was isolated from the cauda epididymis and treated in the absence and presence of the indicated concentrations of each compound. After 1 h of incubation, sperm motility was determined by CASA. Values are expressed as the mean ± SEM of three determinations.

Where [1] appears, read: simplified steroid analogs, mouse sperm motility.
Where [2] appears, read: non-steroidal small molecules, mouse sperm motility.

The term Papp A→B denotes how fast a substance crosses the layer from the apical side. The Papp B→A is how fast a substance crosses the layer from the basolateral side. A word on the efflux ratio: it is the permeability from basolateral to apical divided by that in the opposite direction, in the common usage. For `C[C@H]1O[C@@H](O[C@H]2[C@@H](O)C[C@H](O[C@H]3[C@@H](O)C[C@H](O[C@H]4CC[C@@]5(C)[C@H](CC[C@@H]6[C@@H]5C[C@@H](O)[C@]5(C)[C@@H](C7=CC(=O)OC7)CC[C@]65O)C4)O[C@@H]3C)O[C@@H]2C)C[C@H](O)[C@@H]1O` [Digoxin], the figures for the Papp A→B in “Caco-2 cell permeability” and in “MDCK cell permeability” were 0.63 ×10⁻⁶ cm/s and 1.01 ×10⁻⁶ cm/s, respectively. Also, the recovery in “Caco-2 cell permeability” (read-out: Recovery (%) AP-BL) worked out at 88.7%; in “Caco-2 cell permeability” (read-out: Recovery (%) BL-AP), 107%; in the data set “MDCK cell permeability” (Recovery (%) AP-BL), 84%; in the data set “MDCK cell permeability” (Recovery (%) BL-AP), 106%. Besides, the results for the Papp B→A in the data set “Caco-2 cell permeability” and in “MDCK cell permeability” were 18.8 ×10⁻⁶ cm/s and 3.29 ×10⁻⁶ cm/s, respectively. Also, the efflux ratio in “Caco-2 cell permeability” came out at 30; in the data set “MDCK cell permeability”, 3.26.
Consider `CC(C)NCC(O)COc1cccc2ccccc12` (centres unmarked) [Propranolol], for which, in the data set “Caco-2 cell permeability”, the Papp A→B is 24.4 ×10⁻⁶ cm/s, the Papp B→A was determined as 16.4 ×10⁻⁶ cm/s and the efflux ratio was 0.67. Also, the recovery in the data set “Caco-2 cell permeability” (read-out: Recovery (%) AP-BL) stood at 72.8%. The recovery in the data set “Caco-2 cell permeability” (read-out: Recovery (%) BL-AP) was found to be 86.6%.
The IC50 is the point on the concentration scale where inhibition reaches its midpoint. Lower therefore signals higher potency. As to `C[C@]12CC[C@H]3[C@@H](CC=C4C[C@H](N5CCOCC5)CC[C@@]43C)[C@@H]1CC[C@H]2n1cc(-c2ccccc2)nn1` [Compound 26, 4-((3R,8R,9S,10R,13S,14S,17R)-10,13-Dimethyl-17-(4-phenyl-1H-1,2,3-triazol-1-yl)-2,3,4,7,8,9,10,11,12,13,14,15,16,17-tetradecahydro-1H-cyclopenta[a]phenanthren-3-yl)morpholine], the Emax with mouse sperm (simplified steroid analogs) is approximately 40%. In addition, in the data set on mouse sperm, the “Shape of inhibitory dose response on sperm motility” value (shortened to “Shape of inhibitory dose response”) is on record as “biphasic inhibition”. Besides, the IC50 with mouse sperm (setting [1]) stood at 0.031 nM.
As for `CC12CCC(=NN=C(N)N)C=C1CCC2C=NN=C(N)N` [Compound 41, (E+Z)-2-(((1S,7aR,E)-5-(2-Carbamimidoylhydrazineylidene)-7a-methyl-2,3,5,6,7,7a-hexahydro-1H-inden-1-yl)methylene)hydrazine-1-carboximidamide, reference compound], in the data set on mouse sperm (non-steroidal small molecules), the Emax turned out to be 44%. Besides, the midpoint of inhibition with mouse sperm (setting [2]), the IC50, lay at 0.037 nM.
For `CC12CCC(=NN=C(N)N)C=C1CCCC2c1cn(Cc2ccccc2)nn1` (centres unmarked) [Compound 40, N’-(5-(1-Benzyl-1H-1,2,3-triazol-4-yl)-4a-methyl-4,4a,5,6,7,8-hexahydronaphthalen-2(3H)-ylidene)amidinohydrazone] the same measures were 49% and 0.06 nM.
As to `C[C@]12CC[C@H]3[C@@H](CC=C4C[C@@H](O)CC[C@@]43C)[C@@H]1CC[C@@H]2c1c[nH]nn1` [Compound 15, (3S,8S,9S,10R,13S,14S,17S)-10,13-Dimethyl-17-(1H-1,2,3-triazol-4-yl)-2,3,4,7,8,9,10,11,12,13,14,15,16,17-tetradecahydro-1H-cyclopenta[a]phenanthren-3-ol], the Emax with mouse sperm (simplified steroid analogs) was 42%. The “Shape of inhibitory dose response” value with mouse sperm is “monotonic inhibitory response”. Moreover, in the data set on mouse sperm (setting [1]), the IC50 is 0.019 nM and the “IC50 (pM)” value is “sub-nanomolar range”.
Take `COc1cc2nc(N3CCN(C(=O)c4ccco4)CC3)nc(N)c2cc1OC` [Prazosin]: in “Caco-2 cell permeability”, the Papp A→B was 7.59 ×10⁻⁶ cm/s and the Papp B→A worked out at 24.3 ×10⁻⁶ cm/s. Moreover, the recovery in “Caco-2 cell permeability” (read-out: Recovery (%) AP-BL) came out at 71.4%. In addition, the recovery in the data set “Caco-2 cell permeability” (read-out: Recovery (%) BL-AP) was 85%.
`C[C@]12CCC(=O)C=C1CC[C@@H]2c1cn(Cc2ccccc2)nn1` [Compound 33, (1S,7aR)-1-(1-Benzyl-1H-1,2,3-triazol-4-yl)-7a-methyl-1,2,3,6,7,7a-hexahydro-5H-inden-5-one]: in the data set with mouse sperm (non-steroidal small molecules), the Emax turned out to be 48%. The compound further registered an IC50 in the data set on mouse sperm (setting [2]) of 0.023 nM.
For the compound `C[C@]12CC[C@H](OC(=O)[C@@H](N)CCCCN)CC1=CCC1C2CC[C@@]2(C)C1CC[C@@H]2c1cn(Cc2ccccc2)nn1.Cl.Cl` (stereo partly drawn) [Compound 19, (3S,10R,13S,17S)-17-(1-Benzyl-1H-1,2,3-triazol-4-yl)-10,13-dimethyl-2,3,4,7,8,9,10,11,12,13,14,15,16,17-tetradecahydro-1H-cyclopenta[a]phenanthren-3-yl L-Lysinate Dihydrochloride], the Emax with mouse sperm (simplified steroid analogs) is approximately 37%. Also, the “Shape of inhibitory dose response” value in the data set with mouse sperm is recorded as “biphasic inhibition”. In the data set on mouse sperm (setting [1]), this compound displayed an IC50 of 0.032 nM.
As to `CC12CCC(=NN=C(N)N)C=C1CCCC2C=NN=C(N)N` (centres unmarked) [Compound 42, (E+Z)-2-((6-(2-Carbamimidoylhydrazineylidene)-8a-methyl-1,2,3,4,6,7,8,8a-octahydronaphthalen-1-yl)methylene)hydrazine-1-carboximidamide], the Emax in the data set with mouse sperm (non-steroidal small molecules) amounted to 49%. The compound further returned an IC50 with mouse sperm (setting [2]) of 0.302 nM.
Turning to `COCCc1ccc(OCC(O)CNC(C)C)cc1` (centres unmarked) [Metoprolol], in “MDCK cell permeability”, the Papp B→A worked out at 17 ×10⁻⁶ cm/s, the efflux ratio was determined as 0.79 and the Papp A→B is 21.6 ×10⁻⁶ cm/s. In the data set “MDCK cell permeability” (Recovery (%) AP-BL), the recovery is 83.5%. Moreover, the recovery in the data set “MDCK cell permeability” (Recovery (%) BL-AP) was 97.1%.
For the compound `C[C@]12CC[C@H]3[C@@H](CC=C4C[C@@H](O)CC[C@@]43C)[C@@H]1CC[C@H]2n1cc(-c2ccccc2)nn1` [Compound 24, (3S,8R,9S,10R,13S,14S,17R)-10,13-Dimethyl-17-(4-phenyl-1H-1,2,3-triazol-1-yl)-2,3,4,7,8,9,10,11,12,13,14,15,16,17-tetradecahydro-1H-cyclopenta[a]phenanthren-3-ol], the Emax in the data set on mouse sperm (simplified steroid analogs) was 50%. Moreover, the “Shape of inhibitory dose response” value in the data set on mouse sperm is given as “biphasic inhibition”. The same compound returned an IC50 with mouse sperm (setting [1]) of 0.015 nM.
On to `CC12CCC(=O)C=C1CCC2c1c[nH]nn1` [Compound 35, (1S,7aR)-7a-Methyl-1-(1H-1,2,3-triazol-4-yl)-1,2,3,6,7,7a-hexahydro-5H-inden-one], for which, in the data set on mouse sperm (non-steroidal small molecules), the Emax came to 47%. For the same compound, inhibition with mouse sperm (setting [2]) was half-maximal at 0.071 nM (IC50).
